Experimental data from patent publication US20060069132A1, “Azolecarboxamide herbicides” (priority 2004, published 2006).

What was measured:
giant foxtail = experiment: Test A pre-/postemergence herbicide test; assay type: in vivo, Setaria faberi
How it was run: (§1)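 Sandy loam soil given preemergence directed spray; plants at 2 to 10 cm, one- to two-leaf stage, sprayed to runoff postemergence, compounds in non-phytotoxic solvent with surfactant. Injury rated visually versus untreated controls after about ten greenhouse days, 0 (no effect) to 100 (complete control); dash means not tested.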

pigweed = experiment: Test C pre-/postemergence herbicide test; assay type: in vivo, Amaranthus retroflexus; conditions: for Pigweed plant response rating: Preemergence
How it was run: (§2)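 Preemergence: seeds planted and treated with compound in non-phytotoxic solvent with surfactant; postemergence: plants at 2 to 18 cm (1- to 4-leaf stage) sprayed likewise. Kept in greenhouse 12 to 14 days, then visually rated against controls, 0 (no effect) to 100 (complete control).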

velvetleaf [1] = experiment: Test A pre-/postemergence herbicide test; assay type: in vivo, Abutilon theophrasti
How it was run: as §1

morningglory = experiment: Test A pre-/postemergence herbicide test; assay type: in vivo, Ipomoea spp.
How it was run: as §1

kochia = experiment: Test C pre-/postemergence herbicide test; assay type: in vivo, Kochia scoparia; conditions: for Kochia plant response rating: Preemergence
How it was run: as §2

Surinam grass = experiment: Test C pre-/postemergence herbicide test; assay type: in vivo, Urochloa decumbens; conditions: for Surinam Grass plant response rating: Preemergence
How it was run: as §2

corn = experiment: Test C pre-/postemergence herbicide test; assay type: in vivo, Zea mays; conditions: for Corn plant response rating: Preemergence
How it was run: as §2

lambsquarters = experiment: Test C pre-/postemergence herbicide test; assay type: in vivo, Chenopodium album; conditions: for Lambsquarters plant response rating: Preemergence
How it was run: as §2

velvetleaf [2] = experiment: Test C pre-/postemergence herbicide test; assay type: in vivo, Abutilon theophrasti; conditions: for Velvetleaf plant response rating: Preemergence
How it was run: as §2

[3] = Postemergence, 500 g ai/ha, 0 to 100 scale, 0 no effect, 100 complete control
[4] = Postemergence, 2000 g ai/ha, 0 to 100 scale, 0 no effect, 100 complete control
[5] = Preemergence, 2000 g ai/ha, visual rating, 0 to 100 scale (0 no effect, 100 complete control)
[6] = preemergence, 500 g ai/ha, visual injury, 0 to 100 scale (0 no effect, 100 complete control)
[7] = Postemergence, 250 g ai/ha, scale 0 to 100, 0 no effect, 100 complete control
[8] = Postemergence, 500 g ai/ha, scale 0 to 100, 0 no effect, 100 complete control
[9] = postemergence, 125 g ai/ha, scale 0 to 100
[10] = postemergence, 62 g ai/ha, scale 0 to 100
[11] = Preemergence, 500 g ai/ha, visual rating, 0 to 100 scale (0 no effect, 100 complete control)
[12] = 125 g ai/ha, scale 0 (no effect) to 100 (complete control), visual, 12 to 14 days, preemergence
[13] = 500 g ai/ha, scale 0 to 100, 0 no effect, 100 complete control
[14] = 250 g ai/ha, scale 0 to 100 (0 no effect, 100 complete control), visual, 12 to 14 days, preemergence
[15] = Preemergence, 2000 g ai/ha, 0 to 100 scale, 0 no effect, 100 complete control

For `CCn1nc(C(C)(C)C)cc1C(=O)Nc1cc(OC(F)(F)F)ccc1F` [Compound 338], the “Foxtail, Giant plant response rating” value (giant foxtail; [3]) was 20, the “Plant response rating, Foxtail, Giant” value (giant foxtail; [4]) was 30 and the “Foxtail, Giant plant response rating” value (giant foxtail; [5]) was 100. For the same compound, the “Foxtail, Giant plant response rating” value (giant foxtail; [6]) was 80, the “Plant response rating, Pigweed” value (pigweed; [7]) was 80 and the “Plant response rating, Pigweed” value (pigweed; [8]) was 80. The “Plant response rating, Pigweed” value (pigweed; [9]) was 5, the “Plant response rating, Pigweed” value (pigweed; [10]) was 0 and the “Velvetleaf plant response rating” value (velvetleaf [1]; [3]) was 40. For the same compound, the “Plant response rating, Velvetleaf” value (velvetleaf [1]; [4]) was 60, the “Velvetleaf plant response rating” value (velvetleaf [1]; [5]) was 50 and the “Velvetleaf plant response rating” value (velvetleaf [1]; [6]) was 20. For the same compound, the “Morningglory plant response rating” value (morningglory; [3]) was 25, the “Plant response rating, Morningglory” value (morningglory; [4]) was 70 and the “Morningglory plant response rating” value (morningglory; [5]) was 40. For the same compound, the “Morningglory plant response rating” value (morningglory; [6]) was 10, the “Plant response rating, Kochia” value (kochia; [7]) was 90 and the “Plant response rating, Kochia” value (kochia; [8]) was 90. The “Plant response rating, Kochia” value (kochia; [9]) was 60, the “Plant response rating, Kochia” value (kochia; [10]) was 50 and the “Plant response rating, Surinam Grass” value (Surinam grass; [7]) was 0. For the same compound, the “Plant response rating, Surinam Grass” value (Surinam grass; [8]) was 30, the “Plant response rating, Surinam Grass” value (Surinam grass; [9]) was 0 and the “Plant response rating, Surinam Grass” value (Surinam grass; [10]) was 0. For the same compound, the “Plant response rating, Corn” value (corn; [7]) was 10, the “Plant response rating, Corn” value (corn; [8]) was 10 and the “Plant response rating, Corn” value (corn; [9]) was 0. The “Plant response rating, Corn” value (corn; [10]) was 0, the “Plant response rating, Lambsquarters” value (lambsquarters; [7]) was 75 and the “Plant response rating, Lambsquarters” value (lambsquarters; [8]) was 75. The “Plant response rating, Lambsquarters” value (lambsquarters; [9]) was 5, the “Plant response rating, Lambsquarters” value (lambsquarters; [10]) was 0 and the “Plant response rating, Velvetleaf” value (velvetleaf [2]; [7]) was 40. The “Plant response rating, Velvetleaf” value (velvetleaf [2]; [8]) was 80, the “Plant response rating, Velvetleaf” value (velvetleaf [2]; [9]) was 0 and the “Plant response rating, Velvetleaf” value (velvetleaf [2]; [10]) was 0.

For `CCCCOc1cccc(NC(=O)c2cc(C(C)(C)C)nn2CC)c1` [Compound 137], the “Foxtail, Giant plant response rating” value (giant foxtail; [3]) was 20, the “Plant response rating, Foxtail, Giant” value (giant foxtail; [4]) was 30 and the “Foxtail, Giant plant response rating” value (giant foxtail; [11]) was 50. The “Foxtail, Giant plant response rating” value (giant foxtail; [5]) was 80, the “Plant response rating (0 = no effect, 100 = complete control), Pigweed” value (pigweed; 62 g ai/ha, preemergence) was 100 and the “Plant response rating, Pigweed” value (pigweed; [12]) was 100. The “Pigweed plant response rating” value (pigweed; [13]) was 100, the “Velvetleaf plant response rating” value (velvetleaf [1]; [3]) was 60 and the “Plant response rating, Velvetleaf” value (velvetleaf [1]; [4]) was 70. The “Velvetleaf plant response rating” value (velvetleaf [1]; [5]) was 35, the “Velvetleaf plant response rating” value (velvetleaf [1]; [6]) was 20 and the “Morningglory plant response rating” value (morningglory; [3]) was 25. The “Plant response rating, Morningglory” value (morningglory; [4]) was 40, the “Morningglory plant response rating” value (morningglory; [11]) was 20 and the “Morningglory plant response rating” value (morningglory; [5]) was 35. For the same compound, the “Plant response rating (0 = no effect, 100 = complete control), Kochia” value (kochia; 62 g ai/ha, preemergence) was 80, the “Plant response rating, Kochia” value (kochia; [12]) was 90 and the “Kochia plant response rating” value (kochia; [13]) was 100. For the same compound, the “Plant response rating (0 = no effect, 100 = complete control), Surinam Grass” value (Surinam grass; 62 g ai/ha, preemergence) was 0, the “Plant response rating, Surinam Grass” value (Surinam grass; [12]) was 10 and the “Surinam Grass plant response rating” value (Surinam grass; [13]) was 60. The “Plant response rating (0 = no effect, 100 = complete control), Corn” value (corn; 62 g ai/ha, preemergence) was 0, the “Plant response rating, Corn” value (corn; [12]) was 5 and the “Plant response rating, Corn” value (corn; [14]) was 5. For the same compound, the “Corn plant response rating” value (corn; [13]) was 5, the “Plant response rating (0 = no effect, 100 = complete control), Lambsquarters” value (lambsquarters; 62 g ai/ha, preemergence) was 40 and the “Plant response rating, Lambsquarters” value (lambsquarters; [12]) was 100. For the same compound, the “Lambsquarters plant response rating” value (lambsquarters; [13]) was 100, the “Plant response rating, Velvetleaf” value (velvetleaf [2]; [12]) was 10 and the “Velvetleaf plant response rating” value (velvetleaf [2]; [13]) was 100.

In the case of `CCn1nc(C(C)(C)C)cc1C(=O)Nc1cccc(C(=O)NCC(C)C)c1` [Compound 61], the “Plant response rating, Foxtail, Giant” value (giant foxtail; [3]) was 20, the “Plant response rating, Foxtail, Giant” value (giant foxtail; [4]) was 85 and the “Foxtail, Giant plant response rating” value (giant foxtail; [11]) was 20. The “Foxtail, Giant plant response rating” value (giant foxtail; [15]) was 75, the “Plant response rating (0 = no effect, 100 = complete control), Pigweed” value (pigweed; 62 g ai/ha, preemergence) was 0 and the “Plant response rating, Pigweed” value (pigweed; [12]) was 95. The “Plant response rating, Pigweed” value (pigweed; [14]) was 95, the “Pigweed plant response rating” value (pigweed; [13]) was 95 and the “Plant response rating, Velvetleaf” value (velvetleaf [1]; [4]) was 15. The “Velvetleaf plant response rating” value (velvetleaf [1]; [11]) was 55, the “Velvetleaf plant response rating” value (velvetleaf [1]; [5]) was 85 and the “Plant response rating, Morningglory” value (morningglory; [3]) was 10. The “Plant response rating, Morningglory” value (morningglory; [4]) was 20, the “Morningglory plant response rating” value (morningglory; [11]) was 20 and the “Morningglory plant response rating” value (morningglory; [15]) was 50. For the same compound, the “Plant response rating (0 = no effect, 100 = complete control), Kochia” value (kochia; 62 g ai/ha, preemergence) was 10, the “Plant response rating, Kochia” value (kochia; [12]) was 100 and the “Plant response rating, Kochia” value (kochia; [14]) was 100. For the same compound, the “Kochia plant response rating” value (kochia; [13]) was 100, the “Plant response rating (0 = no effect, 100 = complete control), Surinam Grass” value (Surinam grass; 62 g ai/ha, preemergence) was 0 and the “Plant response rating, Surinam Grass” value (Surinam grass; [12]) was 0. The “Plant response rating, Surinam Grass” value (Surinam grass; [14]) was 5, the “Surinam Grass plant response rating” value (Surinam grass; [13]) was 5 and the “Plant response rating (0 = no effect, 100 = complete control), Corn” value (corn; 62 g ai/ha, preemergence) was 0. The “Plant response rating, Corn” value (corn; [12]) was 0, the “Plant response rating, Corn” value (corn; [14]) was 0 and the “Corn plant response rating” value (corn; [13]) was 0. For the same compound, the “Plant response rating (0 = no effect, 100 = complete control), Lambsquarters” value (lambsquarters; 62 g ai/ha, preemergence) was 100, the “Plant response rating, Lambsquarters” value (lambsquarters; [12]) was 100 and the “Plant response rating, Lambsquarters” value (lambsquarters; [14]) was 100. For the same compound, the “Lambsquarters plant response rating” value (lambsquarters; [13]) was 100, the “Plant response rating, Velvetleaf” value (velvetleaf [2]; [12]) was 45 and the “Plant response rating, Velvetleaf” value (velvetleaf [2]; [14]) was 80. For the same compound, the “Velvetleaf plant response rating” value (velvetleaf [2]; [13]) was 100.
